Results on 6 substances are retold here after article PMC11352108, “Anti-Biofilm and Anti-Inflammatory Properties of the Truncated Analogs of the Scorpion Venom-Derived Peptide IsCT against Pseudomonas aeruginosa” (Antibiotics, 2024).

Where no end group is shown, it is not given here.

Series [1] concerns P. aeruginosa PAO1 biofilms. Briefly: Biofilm susceptibility assay (crystal violet). It counts as cell-based, Pseudomonas aeruginosa. Conditions: 150 μM, 24 h, 37 °C; for Decrease in P. aeruginosa biofilm biomass: 10^6 CFU/mL, OD 550 nm, compared with untreated control. How it is done:
The effect of the truncated IsCT analogs on biofilms of P. aeruginosa was assessed using a method that was described previously. Briefly, 100 μL of the test peptides (final concentration, 150 μM) was added to each well of a 96-well microtiter plate (Nunc^TM, Roskilde, Denmark). Then, an aliquot of P. aeruginosa PAO1 culture was added to each well to obtain a final concentration of 10^6 CFU/mL. The bacterial culture alone was included as an untreated control. Following a 24-h incubation at 37 °C, unattached planktonic cells were discarded, and the wells were carefully washed twice with PBS with a pH of 7.4. Thereafter, biofilm biomasses were quantified by 0.1% crystal violet staining. After excess stains were discarded, the wells were washed with PBS pH 7.4 and left to air dry for 2 h at 37 °C. The biofilm biomass was subsequently dissolved by the addition of 30% acetic acid, and the plates were spectrophotometrically read at 550 nm using a BioTek Synergy HT microplate reader.

The test system of another series is sheep red blood cells. In words: Hemolytic assay. It counts as cell-based. Conditions: for Hemolytic activity (in words): sheep erythrocytes, concentrations as high as 150 μM; for % Hemolysis, Exp.1: replicate Exp.1; for % Hemolysis, Exp.2: replicate Exp.2; for % Hemolysis, Exp.3: replicate Exp.3. How it is done: A hemolytic assay was carried out according to the previously described method using commercially sourced sheep red blood cells (Professional Nanomed Company Limited, Bangkok, Thailand). One hundred microliters of a 2% sheep red blood cell suspension prepared in phosphate-buffered saline (PBS) pH 7.4. was incubated for 1 h at 37 °C with 100 μL of the studied peptides (final concentration of 150 µM). After centrifugation at 1000× g for 5 min, 100 μL of supernatant was transferred to new 96-well plates, and the release of hemoglobin was monitored, measuring an optical density (OD) at 405 nm using a BioTek Synergy HT microplate reader. Red blood cells treated with PBS pH 7.4 were used as a negative control, while those treated with 1% Triton X-100 were used as a positive control. The percent hemolysis was calculated as follows:(1) % Hemolysis=OD405 nm of the test peptide−OD405 nm of negative control/OD405 nm of positive control−OD405 nm of negative control × 100

A further series deals with P. aeruginosa biofilm. Conditions: at 4 μM; cited from earlier work. From the text: We next determined the anti-biofilm potentials of the truncated IsCT analogs against biofilms formation of P. aeruginosa. […] Antibacterials with growth-inhibitory activity may accelerate the evolutionary pressure and ultimately lead to troublesome antibiotic resistance.
Setting [2] is: sheep red blood cells, 1 h, 37 °C, peptides 150 μM (Triton X-100 1%).

On to ILGKIWKSLF [IsCT-Δ7-9], for which the “Anti-biofilm activity (in words)” value in series [1] is listed as “less pronounced”. Further, the “Hemolytic activity (in words)” value in the series with sheep red blood cells is recorded as “decreased hemolytic activity”. Also, in the series on sheep red blood cells (setting [2]), the “% Hemolysis, Exp.1” value was determined as 0.18%; the “% Hemolysis, Exp.2” value was 0.00%; the “% Hemolysis, Exp.3” value is on record as 1.13%.

Take ILGKIKSLF [IsCT-Δ6-9]: the “Decrease in P. aeruginosa biofilm biomass” value in series [1] stood at 26.45%. For the same substance, the “Hemolytic activity (in words)” value in the series with sheep red blood cells is “decreased hemolytic activity”. In the series with sheep red blood cells (setting [2]), the “% Hemolysis, Exp.1” value worked out at 0.38%; the “% Hemolysis, Exp.2” value was 0.00%; the “% Hemolysis, Exp.3” value was determined as 1.03%.

In the case of ILGKIGIKSLF [IsCT-Δ6-7], the “Decrease in P. aeruginosa biofilm biomass” value in series [1] is listed as 28.27%. In addition, in the series on sheep red blood cells, the “Hemolytic activity (in words)” value was “decreased hemolytic activity”. Besides, in the series with sheep red blood cells (setting [2]), the “% Hemolysis, Exp.1” value was found to be 0.00%; the “% Hemolysis, Exp.2” value was 0.0473%; the “% Hemolysis, Exp.3” value was found to be 2.44%.

For ILGKIWIKSLF [IsCT-Δ7-8], in series [1], the “Anti-biofilm activity (in words)” value is “less pronounced”. Besides, the “Hemolytic activity (in words)” value in the series on sheep red blood cells is “decreased hemolytic activity”. Moreover, in the series on sheep red blood cells (setting [2]), the “% Hemolysis, Exp.1” value was 0.25%; the “% Hemolysis, Exp.2” value stood at 2.48%; the “% Hemolysis, Exp.3” value turned out to be 3.66%.

Consider “β-defensin 2: an AMP, human beta-defensin 2 (GIGDPVTCLKSGAICHPVFCPRRYKQIGTCGLPGTKCCKKP; ends and bridges not checked; cysteine pairing not given here; UniProt O15263 24-64, looked up)”, for which the “Inhibition of P. aeruginosa biofilm production” value in the series with P. aeruginosa biofilm is 40%.

Consider Triton X-100 [reference compound], for which the “% Hemolysis” value in the series with sheep red blood cells (2% sheep red blood cells in PBS pH 7.4, 1 h, 37 °C, peptides 150 μM (Triton X-100 1%, positive control), OD 405 nm, mean ± SEM of independent experiments) turned out to be 100.00 ± 0.00%. In the series with sheep red blood cells (sheep red blood cells, 1 h, 37 °C, peptides 150 μM (Triton X-100 1%), mean of 3 experiments (supplement)), the “% Hemolysis, Mean” value was 100.00%. In the series with sheep red blood cells (setting [2]), the “% Hemolysis, Exp.1” value was determined as 100.00%; the “% Hemolysis, Exp.2” value came to 100.00%; the “% Hemolysis, Exp.3” value is listed as 100.00%.
